In ChEMBL document CHEMBL1155125 (Bioorg Med Chem Lett, 2008):
pEC50: −log10 of the molar value.

What was measured:
[1] = system: Cystic fibrosis transmembrane conductance regulator (Homo sapiens), P13569 [F508del]; test: Agonist activity at CFTR-deltaF508 mutant expressed in NIH3T3 cells assessed as increase in forskolin-stimulated current at 30 uM by whole cell assay relative to genistein; format: functional, cell-based
[2] = system: Cystic fibrosis transmembrane conductance regulator (Homo sapiens), P13569 [F508del]; test: Agonist activity at CFTR-deltaF508 mutant expressed in NIH3T3 cells assessed as increase in forskolin-stimulated current at 30 uM by whole cell assay relative to control; format: functional, cell-based
[3] = system: Cystic fibrosis transmembrane conductance regulator (Homo sapiens), P13569 [F508del]; test: Agonist activity at CFTR-deltaF508 mutant expressed in NIH3T3 cells assessed as increase in forskolin-stimulated current at 20 uM by whole cell assay relative to control; format: functional, cell-based
[4] = system: Cystic fibrosis transmembrane conductance regulator (Homo sapiens), P13569 [K1250A]; test: Agonist activity at CFTR-K1250A mutant assessed as increase in forskolin-stimulated current at 5 uM; format: functional
Cystic fibrosis transmembrane conductance regulator (Homo sapiens), P13569 [K1250A], sequence (P13569 whole entry K1250A): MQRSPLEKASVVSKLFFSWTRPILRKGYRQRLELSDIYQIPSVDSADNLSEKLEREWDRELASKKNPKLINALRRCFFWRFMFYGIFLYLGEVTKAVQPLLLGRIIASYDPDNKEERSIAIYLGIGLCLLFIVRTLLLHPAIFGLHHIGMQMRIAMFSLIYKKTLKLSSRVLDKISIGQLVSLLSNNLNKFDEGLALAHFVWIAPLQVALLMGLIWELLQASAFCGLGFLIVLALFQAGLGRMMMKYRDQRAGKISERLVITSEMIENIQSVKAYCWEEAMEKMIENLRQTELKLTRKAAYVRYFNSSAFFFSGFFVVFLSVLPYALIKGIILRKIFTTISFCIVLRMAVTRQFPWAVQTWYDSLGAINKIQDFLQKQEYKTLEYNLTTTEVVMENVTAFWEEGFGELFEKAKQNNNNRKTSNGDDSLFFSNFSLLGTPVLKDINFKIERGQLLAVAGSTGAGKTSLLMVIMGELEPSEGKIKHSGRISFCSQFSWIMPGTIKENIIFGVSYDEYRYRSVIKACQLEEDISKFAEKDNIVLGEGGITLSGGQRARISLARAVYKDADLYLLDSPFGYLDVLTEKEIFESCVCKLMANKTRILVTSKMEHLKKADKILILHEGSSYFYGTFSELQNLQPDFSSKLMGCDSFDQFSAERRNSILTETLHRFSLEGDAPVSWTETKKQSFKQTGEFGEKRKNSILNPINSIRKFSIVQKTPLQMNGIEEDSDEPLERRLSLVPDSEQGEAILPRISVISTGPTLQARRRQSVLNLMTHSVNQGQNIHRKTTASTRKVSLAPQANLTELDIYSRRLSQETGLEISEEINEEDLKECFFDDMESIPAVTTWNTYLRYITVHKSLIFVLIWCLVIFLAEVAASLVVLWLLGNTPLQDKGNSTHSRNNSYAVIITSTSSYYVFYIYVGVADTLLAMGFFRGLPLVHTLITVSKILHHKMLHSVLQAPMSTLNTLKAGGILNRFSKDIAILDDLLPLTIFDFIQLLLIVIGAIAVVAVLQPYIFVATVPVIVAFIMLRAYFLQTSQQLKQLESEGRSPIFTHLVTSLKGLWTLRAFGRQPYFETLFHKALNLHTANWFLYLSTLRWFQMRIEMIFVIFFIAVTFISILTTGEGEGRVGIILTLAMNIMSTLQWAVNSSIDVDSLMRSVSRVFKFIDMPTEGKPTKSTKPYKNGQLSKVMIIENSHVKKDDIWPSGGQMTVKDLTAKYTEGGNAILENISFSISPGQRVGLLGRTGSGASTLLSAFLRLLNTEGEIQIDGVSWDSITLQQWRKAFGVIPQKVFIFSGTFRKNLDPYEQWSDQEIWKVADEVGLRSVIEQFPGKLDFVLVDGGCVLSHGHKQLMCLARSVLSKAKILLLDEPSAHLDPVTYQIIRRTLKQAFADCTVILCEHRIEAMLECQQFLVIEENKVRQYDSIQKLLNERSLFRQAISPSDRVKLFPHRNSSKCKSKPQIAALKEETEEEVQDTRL

[5] = biological target: Cystic fibrosis transmembrane conductance regulator (Homo sapiens, UniProt P13569, F508DEL); test: Agonist activity at CFTR-deltaF508 mutant expressed in NIH3T3 cells assessed as increase in forskolin-stimulated current; format: functional, cell-based
Cystic fibrosis transmembrane conductance regulator, sequence (P13569 as listed by the source): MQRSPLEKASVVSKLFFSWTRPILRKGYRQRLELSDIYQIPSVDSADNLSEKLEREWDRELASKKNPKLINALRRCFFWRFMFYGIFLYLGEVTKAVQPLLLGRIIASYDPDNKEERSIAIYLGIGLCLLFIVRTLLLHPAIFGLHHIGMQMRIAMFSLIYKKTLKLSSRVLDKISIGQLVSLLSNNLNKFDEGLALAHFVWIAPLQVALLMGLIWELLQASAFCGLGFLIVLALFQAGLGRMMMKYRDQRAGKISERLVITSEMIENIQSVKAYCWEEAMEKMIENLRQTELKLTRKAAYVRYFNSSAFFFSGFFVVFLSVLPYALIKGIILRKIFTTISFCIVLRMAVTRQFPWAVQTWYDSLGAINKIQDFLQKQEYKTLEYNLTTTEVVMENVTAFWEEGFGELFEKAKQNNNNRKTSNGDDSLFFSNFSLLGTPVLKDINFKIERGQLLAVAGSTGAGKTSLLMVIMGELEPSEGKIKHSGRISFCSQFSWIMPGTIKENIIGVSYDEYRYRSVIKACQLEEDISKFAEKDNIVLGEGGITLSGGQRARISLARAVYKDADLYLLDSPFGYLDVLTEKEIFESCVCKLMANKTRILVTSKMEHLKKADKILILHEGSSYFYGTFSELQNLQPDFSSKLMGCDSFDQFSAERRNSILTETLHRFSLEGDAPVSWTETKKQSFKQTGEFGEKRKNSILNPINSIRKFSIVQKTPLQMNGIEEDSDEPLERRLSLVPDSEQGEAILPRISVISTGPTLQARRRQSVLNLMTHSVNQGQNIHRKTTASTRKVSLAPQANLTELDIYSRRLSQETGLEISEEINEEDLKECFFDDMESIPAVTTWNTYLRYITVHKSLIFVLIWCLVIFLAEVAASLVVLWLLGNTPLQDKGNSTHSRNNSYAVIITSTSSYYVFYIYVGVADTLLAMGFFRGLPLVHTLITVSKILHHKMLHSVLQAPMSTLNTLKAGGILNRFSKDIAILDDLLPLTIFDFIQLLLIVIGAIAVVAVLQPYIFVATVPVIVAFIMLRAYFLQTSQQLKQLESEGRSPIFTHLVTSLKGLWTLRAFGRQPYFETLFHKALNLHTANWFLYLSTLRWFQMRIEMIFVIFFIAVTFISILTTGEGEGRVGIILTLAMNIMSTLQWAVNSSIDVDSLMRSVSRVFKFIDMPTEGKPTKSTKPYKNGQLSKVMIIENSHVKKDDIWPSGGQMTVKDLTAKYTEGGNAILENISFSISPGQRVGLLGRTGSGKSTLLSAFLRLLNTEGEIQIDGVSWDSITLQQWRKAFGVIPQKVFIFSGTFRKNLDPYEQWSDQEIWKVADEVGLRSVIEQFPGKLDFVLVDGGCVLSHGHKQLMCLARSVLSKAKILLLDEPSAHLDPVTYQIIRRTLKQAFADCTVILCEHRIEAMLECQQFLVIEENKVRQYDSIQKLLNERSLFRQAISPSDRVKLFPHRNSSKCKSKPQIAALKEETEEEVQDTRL

Cystic fibrosis transmembrane conductance regulator (Homo sapiens), P13569 [F508del], sequence (P13569 as listed by the source): as above

Row | Activity [1] | fold change (FC) [2] | fold change (FC) [3] | fold change (FC) [4] | pEC50 [5] | Compound
1 | 31% | 3.76 | 3.69 | 1.11 | 5.46 | O=c1cc(-c2ccncc2)oc2c1ccc1ccccc12
2 |  |  | 8.29 |  |  | O=c1c(-c2ccc(O)cc2)coc2cc(O)cc(O)c12
